In patent US8106055B2, “Substituted amide compounds” (Gruenenthal GmbH, priority 2007, dated 2012):

Columns and labels:
human μ opiate receptor = target: T1, human μ opiate receptor (Homo sapiens, UniProt P35372); experiment: Affinity for the human μ opiate receptor ([3H]-naloxone displacement, CHO-K1 receptor membrane preparation, SPA); format: binding; details: 1.5 h, Table 3, to be read in the same way as Table 1; test concentration 1 μM; read-out: μ
T1 construct: purchased PerkinElmer Life Sciences, Zaventem, Belgium RB-HOM; host or cells: CHO-K1 cells (membrane preparation)
T1 sequence (P35372 whole entry): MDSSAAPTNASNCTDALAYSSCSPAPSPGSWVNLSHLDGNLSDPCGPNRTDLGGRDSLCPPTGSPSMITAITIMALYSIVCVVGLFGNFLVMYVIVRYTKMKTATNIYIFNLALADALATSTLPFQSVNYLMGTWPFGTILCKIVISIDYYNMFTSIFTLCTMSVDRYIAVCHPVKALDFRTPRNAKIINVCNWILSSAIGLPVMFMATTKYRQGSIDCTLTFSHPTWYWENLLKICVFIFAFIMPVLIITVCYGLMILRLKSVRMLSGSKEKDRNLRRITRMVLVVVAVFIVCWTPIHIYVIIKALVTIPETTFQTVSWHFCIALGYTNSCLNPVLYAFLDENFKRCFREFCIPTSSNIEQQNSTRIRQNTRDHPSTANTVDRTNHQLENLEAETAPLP
Method in brief: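 Displacement of 1 nmol/l [3H]-naloxone measured by SPA counting after 90 min at room temperature, using human μ receptor CHO-K1 membrane preparation in Tris-HCl buffer with 0.06% BSA. Test substances at 1 μmol/l give % inhibition; dilution series yield IC50, then Ki (Cheng-Prusoff); non-specific binding with 100 μmol/l naloxone.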

[1] = target: T2, human bradykinin 1 receptor (B1R) (Homo sapiens, UniProt P46663); experiment: Functional investigation on the human bradykinin 1 receptor (B1R), Ca2+ FLIPR assay in CHO K1 hB1R cells; format: cell-based; details: CHO-K1, B1R antagonism human; test substance 10 μM; Ca2+ FLIPR, CHO K1 hB1R cells; read-out: B1R Ant. h [10 μM] % Inhibition
T2 construct: expressed in transfected cells; host or cells: CHO K1 cells
T2 sequence (P46663 1-353): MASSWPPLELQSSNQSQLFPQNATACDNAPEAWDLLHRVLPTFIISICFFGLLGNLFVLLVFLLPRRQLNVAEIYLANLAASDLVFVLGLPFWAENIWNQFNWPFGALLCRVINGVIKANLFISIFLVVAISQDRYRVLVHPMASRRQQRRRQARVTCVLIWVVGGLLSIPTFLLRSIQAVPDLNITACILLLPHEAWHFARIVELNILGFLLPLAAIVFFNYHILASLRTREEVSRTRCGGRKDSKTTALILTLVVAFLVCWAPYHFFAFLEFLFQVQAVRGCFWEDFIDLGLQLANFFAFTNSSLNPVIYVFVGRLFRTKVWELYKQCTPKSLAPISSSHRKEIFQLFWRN
Method in brief: (§1)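 Fluo-4 Ca2+ readout, peak fluorescence. Stable CHO K1 transfectants; compound pre-incubated 10-20 min, then EC80 agonist—Lys-Des-Arg9-BK for hB1R, Des-Arg9-BK for rB1R. % inhibition vs maximal inhibition; IC50 from multiple concentrations, duplicate/triplicate, ≥2 independent runs.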

[2] = target: T3, bradykinin 1 receptor (B1R) of the rat (Rattus norvegicus, UniProt P97583); experiment: Functional investigation on the rat bradykinin 1 receptor (B1R), Ca2+ FLIPR assay in CHO K1 rB1R cells; format: cell-based; details: CHO-K1, B1R antagonism rat; test substance 10 μM; Ca2+ FLIPR, CHO K1 rB1R cells; read-out: B1R Ant. r [10 μM] % Inhibition
T3 construct: expressed in transfected cells; host or cells: CHO K1 cells
T3 sequence (P97583 1-337): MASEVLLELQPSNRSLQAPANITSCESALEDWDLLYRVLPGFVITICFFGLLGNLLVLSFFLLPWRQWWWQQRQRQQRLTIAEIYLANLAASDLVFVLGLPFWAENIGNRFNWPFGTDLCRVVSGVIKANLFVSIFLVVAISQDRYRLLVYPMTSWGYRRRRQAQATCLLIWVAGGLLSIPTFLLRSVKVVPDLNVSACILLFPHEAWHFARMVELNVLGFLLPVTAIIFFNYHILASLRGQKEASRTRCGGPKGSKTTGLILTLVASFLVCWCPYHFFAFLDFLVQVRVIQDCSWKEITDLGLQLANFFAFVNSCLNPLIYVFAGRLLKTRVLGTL
Method in brief: as §1

SMILES | inhibition at 1 µM (human μ opiate receptor) [%] | inhibition at 10 µM [1] [%] | inhibition at 10 µM [2] [%]
CN(CCOCC(=O)NC1CCC(C(c2ccccc2)N2CCOCC2)CC1)S(=O)(=O)c1c(Cl)cc(C(F)(F)F)cc1Cl (stereo not drawn) [Example 689, 2-(2-(2,6-dichloro-N-methyl-4-(trifluoromethyl)phenylsulfonamido)ethoxy)-N-(4-(morpholino(phenyl)methyl)cyclohexyl)acetamide] | 6 | 22 | 39
CN1CCN(C(c2ccccc2)C2CCC(NC(=O)COCCN(C)S(=O)(=O)c3c(Cl)cc(C(F)(F)F)cc3Cl)CC2)CC1 (stereo not drawn) [Example 690, 2-(2-(2,6-dichloro-N-methyl-4-(trifluoromethyl)phenylsulfonamido)ethoxy)-N-(4-((4-methylpiperazin-1-yl)(phenyl)methyl)cyclohexyl)acetamide] | 26 | 54 | 30
O=C(COC1CCCN(S(=O)(=O)c2c(Cl)cc(Cl)cc2Cl)C1)NC1CCC(C(c2ccccc2)N2CCOCC2)CC1 (stereo not drawn) [Example 691, N-(4-(morpholino(phenyl)methyl)cyclohexyl)-2-(1-(2,4,6-trichlorophenylsulfonyl)piperidin-3-yloxy)acetamide] | 58 | 10 | 6
CN1CCN(C(c2ccccc2)C2CCC(NC(=O)COC3CCCN(S(=O)(=O)c4c(Cl)cc(Cl)cc4Cl)C3)CC2)CC1 (stereo not drawn) [Example 692, N-(4-((4-methylpiperazin-1-yl)(phenyl)methyl)cyclohexyl)-2-(1-(2,4,6-trichlorophenylsulfonyl)piperidin-3-yloxy)acetamide] | 65 | 78 | 41
COc1cc(C)c(S(=O)(=O)N2CCCC(OCC(=O)NC3CCC(C(c4ccccc4)N4CCOCC4)CC3)C2)c(C)c1 (stereo not drawn) [Example 693, 2-(1-(4-methoxy-2,6-dimethylphenylsulfonyl)piperidin-3-yloxy)-N-(4-(morpholino(phenyl)methyl)cyclohexyl)acetamide] | 9 | 26 | 50
COc1cc(C)c(S(=O)(=O)N2CCCC2COCC(=O)NC2CCC(C(c3ccccc3)N3CCOCC3)CC2)c(C)c1 (stereo not drawn) [Example 694, 2-((1-(4-methoxy-2,6-dimethylphenylsulfonyl)pyrrolidin-2-yl)methoxy)-N-(4-(morpholino(phenyl)methyl)cyclohexyl)acetamide] | 10 | 54 | 104
COc1cc(C)c(S(=O)(=O)N2CCCC2COCC(=O)NC2CCC(C(c3ccccc3)N3CCN(C)CC3)CC2)c(C)c1 (stereo not drawn) [Example 695, 2-((1-(4-methoxy-2,6-dimethylphenylsulfonyl)pyrrolidin-2-yl)methoxy)-N-(4-((4-methylpiperazin-1-yl)(phenyl)methyl)cyclohexyl)acetamide] | 27 | 103 | 103
O=C(COCC1CCCN1S(=O)(=O)c1c(Cl)cc(Cl)cc1Cl)NC1CCC(C(CCc2ccccc2)N2CCOCC2)CC1 (stereo not drawn) [Example 696, N-(4-(1-morpholino-3-phenylpropyl)cyclohexyl)-2-((1-(2,4,6-trichlorophenylsulfonyl)pyrrolidin-2-yl)methoxy)acetamide] | 21 | 43 | 91
O=C(COCC1CCCN1S(=O)(=O)c1c(Cl)cc(Cl)cc1Cl)NC1CCC(C(CCc2ccccc2)N2CCCCC2)CC1 (stereo not drawn) [Example 697, N-(4-(3-phenyl-1-(piperidin-1-yl)propyl)cyclohexyl)-2-((1-(2,4,6-trichlorophenylsulfonyl)pyrrolidin-2-yl)methoxy)acetamide] | 76 | 71 | 97
O=C(COCC1CCCN1S(=O)(=O)c1c(Cl)cc(Cl)cc1Cl)NC1CCC(C(c2ccccc2)N2CCOCC2)CC1 (stereo not drawn) [Example 698, N-(4-(morpholino(phenyl)methyl)cyclohexyl)-2-((1-(2,4,6-trichlorophenylsulfonyl)pyrrolidin-2-yl)methoxy)acetamide] | 40 | 39 | 86
COc1cc(C)c(S(=O)(=O)N2CCCCC2COCC(=O)NC2CCC(C(c3ccccc3)N3CCOCC3)CC2)c(C)c1 (stereo not drawn) [Example 699, 2-((1-(4-methoxy-2,6-dimethylphenylsulfonyl)piperidin-2-yl)methoxy)-N-(4-(morpholino(phenyl)methyl)cyclohexyl)acetamide] | 15 | 90 | 104
O=C(COCC1CCCCN1S(=O)(=O)c1c(Cl)cc(Cl)cc1Cl)NC1CCC(C(c2ccccc2)N2CCOCC2)CC1 (stereo not drawn) [Example 700, N-(4-(morpholino(phenyl)methyl)cyclohexyl)-2-((1-(2,4,6-trichlorophenylsulfonyl)piperidin-2-yl)methoxy)acetamide] | 27 | 38 | 89
COc1cc(C)c(S(=O)(=O)N2CCCC(COCC(=O)NC3CCC(C(c4ccccc4)N4CCOCC4)CC3)C2)c(C)c1 (stereo not drawn) [Example 701, 2-((1-(4-methoxy-2,6-dimethylphenylsulfonyl)piperidin-3-yl)methoxy)-N-(4-(morpholino(phenyl)methyl)cyclohexyl)acetamide] | 2 | 16 | 49
COc1cc(C)c(S(=O)(=O)N2CCCC(COCC(=O)NC3CCC(C(c4ccccc4)N4CCN(C)CC4)CC3)C2)c(C)c1 (stereo not drawn) [Example 702, 2-((1-(4-methoxy-2,6-dimethylphenylsulfonyl)piperidin-3-yl)methoxy)-N-(4-((4-methylpiperazin-1-yl)(phenyl)methyl)cyclohexyl)acetamide] | 19 | 70 | 74
O=C(COCC1CCCN(S(=O)(=O)c2c(Cl)cc(Cl)cc2Cl)C1)NC1CCC(C(c2ccccc2)N2CCOCC2)CC1 (stereo not drawn) [Example 703, N-(4-(morpholino(phenyl)methyl)cyclohexyl)-2-((1-(2,4,6-trichlorophenylsulfonyl)piperidin-3-yl)methoxy)acetamide] | 19 | -4 | 37
CN1CCN(C(c2ccccc2)C2CCC(NC(=O)COCCN(C)S(=O)(=O)c3ccc(Cl)cc3Cl)CC2)CC1 (stereo not drawn) [Example 704, 2-(2-(2,4-dichloro-N-methylphenylsulfonamido)ethoxy)-N-(4-((4-methylpiperazin-1-yl)(phenyl)methyl)cyclohexyl)acetamide] | 27 | 75 | 39
CN(CCOCC(=O)NCC1CCC(C(c2ccccc2)N2CCOCC2)CC1)S(=O)(=O)c1ccc(Cl)cc1Cl (stereo not drawn) [Example 705, 2-(2-(2,4-dichloro-N-methylphenylsulfonamido)ethoxy)-N-((4-(morpholino(phenyl)methyl)cyclohexyl)methyl)acetamide] | 8 | 49 | -9
CN(CCOCC(=O)NCC1CCC(C(c2ccccc2)N2CCOCC2)CC1)S(=O)(=O)c1c(Cl)cccc1Cl (stereo not drawn) [Example 706, 2-(2-(2,6-dichloro-N-methylphenylsulfonamido)ethoxy)-N-((4-(morpholino(phenyl)methyl)cyclohexyl)methyl)acetamide] | 7 | 77 | 52
O=C(COC1CCCN(S(=O)(=O)c2c(Cl)cc(Cl)cc2Cl)C1)NCC1CCC(C(c2ccccc2)N2CCOCC2)CC1 (stereo not drawn) [Example 707, N-((4-(morpholino(phenyl)methyl)cyclohexyl)methyl)-2-(1-(2,4,6-trichlorophenylsulfonyl)piperidin-3-yloxy)acetamide] | 28 | 2 | 25
COc1cc(C)c(S(=O)(=O)N2CCCC(OCC(=O)NC3CCC(C(c4ccccc4)N4CCN(C)CC4)CC3)C2)c(C)c1 (stereo not drawn) [Example 708, 2-(1-(4-methoxy-2,6-dimethylphenylsulfonyl)piperidin-3-yloxy)-N-(4-((4-methylpiperazin-1-yl)(phenyl)methyl)cyclohexyl)acetamide] | 29 | 100 | 91
